# Reference: the Kinase Knowledgebase extract (Sharma et al. 2016)
# Target: EGFR (UniProt P00533)
# Sequence (P00533 whole entry, looked up): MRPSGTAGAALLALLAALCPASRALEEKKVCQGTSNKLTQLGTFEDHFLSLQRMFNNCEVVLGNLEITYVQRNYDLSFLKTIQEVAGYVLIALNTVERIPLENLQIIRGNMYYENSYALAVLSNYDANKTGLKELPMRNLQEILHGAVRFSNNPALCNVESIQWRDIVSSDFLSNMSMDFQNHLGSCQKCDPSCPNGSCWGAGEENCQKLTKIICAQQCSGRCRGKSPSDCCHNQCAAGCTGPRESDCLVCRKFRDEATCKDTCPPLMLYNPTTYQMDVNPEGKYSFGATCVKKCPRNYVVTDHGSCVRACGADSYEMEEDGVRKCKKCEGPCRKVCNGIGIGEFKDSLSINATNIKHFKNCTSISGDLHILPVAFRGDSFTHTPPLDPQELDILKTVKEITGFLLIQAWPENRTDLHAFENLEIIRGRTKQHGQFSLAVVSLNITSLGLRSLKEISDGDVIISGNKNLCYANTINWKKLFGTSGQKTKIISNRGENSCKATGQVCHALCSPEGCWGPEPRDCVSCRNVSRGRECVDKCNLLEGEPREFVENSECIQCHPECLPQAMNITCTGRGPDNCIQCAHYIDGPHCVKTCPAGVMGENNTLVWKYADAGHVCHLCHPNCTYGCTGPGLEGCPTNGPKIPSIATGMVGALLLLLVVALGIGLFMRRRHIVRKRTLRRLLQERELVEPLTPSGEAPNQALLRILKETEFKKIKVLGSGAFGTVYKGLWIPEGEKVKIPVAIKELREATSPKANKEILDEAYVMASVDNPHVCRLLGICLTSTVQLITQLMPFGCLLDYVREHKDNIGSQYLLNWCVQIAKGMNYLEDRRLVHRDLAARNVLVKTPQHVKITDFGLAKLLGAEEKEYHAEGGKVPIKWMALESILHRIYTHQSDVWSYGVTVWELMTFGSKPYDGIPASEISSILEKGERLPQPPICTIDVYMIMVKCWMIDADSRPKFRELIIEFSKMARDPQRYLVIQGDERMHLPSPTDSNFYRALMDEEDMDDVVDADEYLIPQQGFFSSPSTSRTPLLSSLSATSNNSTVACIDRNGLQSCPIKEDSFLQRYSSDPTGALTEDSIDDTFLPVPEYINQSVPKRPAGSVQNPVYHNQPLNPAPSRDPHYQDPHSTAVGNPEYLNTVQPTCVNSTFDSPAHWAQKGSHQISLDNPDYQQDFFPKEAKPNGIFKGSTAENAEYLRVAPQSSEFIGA
row,IC50 [mg/L],Structure (SMILES)
1,> 4.5,COc1cc(Nc2ncnc(-c3cccnc3NCc3ccccc3F)n2)cc(OC)c1OC
2,3.5 to 4.5,COc1cc(Nc2ncnc(Nc3cc(C)[nH]n3)n2)cc(OC)c1OC
3,2.4 to 3.5,COc1ccc(Nc2ncnc(Nc3ccc(Br)cc3F)n2)cc1OC
4,< 0.4,COc1ccc(Nc2ncnc(Nc3cc(OC)c(OC)c(OC)c3)n2)cc1O
5,0.4 to 2.4,COc1cc(Nc2ncnc(-n3ccnc3Cl)n2)cc(OC)c1OC
6,< 0.4,COc1cc(Nc2ncnc(N(CCO)c3ccccc3)n2)cc(OC)c1OC
7,> 4.5,COc1ccc2c(c1)nc(NCc1ccccn1)n2-c1ncnc(Nc2cc(OC)c(OC)c(OC)c2)n1.COc1ccc2nc(NCc3ccccn3)n(-c3ncnc(Nc4cc(OC)c(OC)c(OC)c4)n3)c2c1
8,> 4.5,COc1ccc(N(C)c2ncnc(-n3c(N)nc4ccccc43)n2)cc1
9,> 4.5,NC(=O)c1ccc(Nc2ncnc(-c3cccs3)n2)cc1
10,2.4 to 3.5,COc1cc(Nc2ncnc(Nc3ccccc3C)n2)cc(OC)c1OC
11,< 0.4,N#CCc1ccc(Nc2ncnc(Nc3ccc4c(cnn4Cc4ccccc4)c3)n2)cc1
12,> 4.5,COc1cc(Nc2ncnc(-c3cccnc3NC3CCCCC3)n2)cc(OC)c1OC
13,> 4.5,COC(=O)c1sccc1Nc1ncnc(N2CCCc3cc(C)ccc32)n1
14,> 4.5,COc1ccc2c(c1)c(CCNC(C)=O)cn2-c1ncnc(Nc2cc(OC)c(OC)c(OC)c2)n1
15,> 4.5,COc1cc(Nc2ncnc(-n3ccc4cccnc43)n2)cc(OC)c1OC
16,< 0.4,Cc1cccc(Nc2ncnc(N(C)c3cccc(Br)c3)n2)c1
17,< 0.4,COc1cc(Nc2ncnc(Nc3cc(C(F)(F)F)ccc3F)n2)cc(OC)c1OC
18,> 4.5,O=c1[nH]c2ccccc2n1-c1ncnc(Nc2ccc3[nH]ncc3c2)n1
19,> 4.5,COc1cc(Nc2ncnc(Nc3nnc(-c4ccccc4)[nH]3)n2)cc(OC)c1OC
20,> 4.5,COc1cc(Nc2ncnc(-n3c(Cl)nc4ccccc43)n2)cc(OC)c1OC
21,> 4.5,Clc1ncnc(Nc2cc(-c3ccccc3)n[nH]2)n1
22,> 4.5,COc1cc(Nc2ncnc(-c3cccs3)n2)cc(OC)c1OC

row,IC50 [mg/L],Structure (SMILES)
1,> 4.5,N#Cc1ccc(Nc2ncnc(-n3c(=O)[nH]c4ccccc43)n2)cc1
2,> 4.5,COc1cc(Nc2ncnc(-n3c(NCc4cccc(C)c4)nc4ccccc43)n2)cc(OC)c1OC
3,> 4.5,COC(=O)c1ccc(Nc2ncnc(Nc3cc(-c4ccco4)n[nH]3)n2)cc1
4,> 4.5,COc1cc(Nc2ncnc(-c3cccnc3NCc3ccc(F)cc3)n2)cc(OC)c1OC
5,< 0.4,c1ccc(Cn2ncc3cc(Nc4ncnc(Nc5ccc6ncsc6c5)n4)ccc32)cc1
6,< 0.4,Cc1ccc2c(c1)CCCN2c1ncnc(Nc2ccc3c(c2)C(=O)OC3)n1
7,> 4.5,COc1cc(Nc2ncnc(-c3cccnc3Nc3cccc4c3CCCC4)n2)cc(OC)c1OC
8,> 4.5,COc1cc(Nc2ncnc(Nc3ccc(C(N)=O)cc3)n2)cc(OC)c1OC
9,> 4.5,COc1cc(Nc2ncnc(-c3ccnc(NCCCN)c3)n2)cc(OC)c1OC
10,0.4 to 2.4,COc1cc(Nc2ncnc(Nc3ccc(N)cc3)n2)cc(OC)c1OC
11,> 4.5,COc1cc(Nc2ncnc(-c3cccnc3NC(C)c3cccc4ccccc34)n2)cc(OC)c1OC (stereo unspecified)
12,> 4.5,COc1cc(Nc2ncnc(-c3cccnc3Nc3cccc(C(C)=O)c3)n2)cc(OC)c1OC
13,> 4.5,NS(=O)(=O)c1ccc(CNc2ncnc(-n3c(=O)[nH]c4ccccc43)n2)cc1
14,> 4.5,COc1cc(Nc2ncnc(-n3c(NCc4ccncc4)nc4ccccc43)n2)cc(OC)c1OC
15,> 4.5,COc1ccc(CNc2nc3ccccc3n2-c2ncnc(Nc3cccc(C(=O)O)c3)n2)cc1
16,0.4 to 2.4,O=C(O)Cc1cccc(Nc2ncnc(-c3cccnc3Nc3ccccc3)n2)c1
17,2.4 to 3.5,COc1cc(Nc2ncnc(-n3c(C)nc4ccccc43)n2)cc(OC)c1OC
18,> 4.5,COc1cc(Nc2ncnc(-n3c(NCC(C)C)nc4ccccc43)n2)cc(OC)c1OC
19,> 4.5,COc1cc(Nc2ncnc(-c3cccnc3NCCCN)n2)cc(OC)c1OC
20,> 4.5,COc1cc(Nc2ncnc(Nc3ccc(N4CCOCC4)cc3)n2)cc(OC)c1OC
21,< 0.4,COc1cc(Nc2ncnc(NC3CC3c3ccccc3)n2)cc(OC)c1OCCN1CCOCC1 (stereo unspecified)
22,0.4 to 2.4,COc1cc(Nc2ncnc(-n3c(NCCc4ccccc4)nc4ccccc43)n2)cc(OC)c1OC

row,IC50 [mg/L],Structure (SMILES)
1,> 4.5,CCC(O)CNc1ncnc(Nc2ccc(OC)c(OC)c2)n1 (stereo unspecified)
2,> 4.5,COC(=O)c1cccc(Nc2nc3ccccc3n2-c2ncnc(Nc3cc(OC)c(OC)c(OC)c3)n2)c1
3,0.4 to 2.4,O=C(O)CCNC(=O)c1ccc(Nc2ncnc(Nc3cc(-c4ccco4)[nH]n3)n2)cc1
4,> 4.5,NC(=O)c1ccc(Nc2ncnc(-n3c(=O)[nH]c4ccccc43)n2)cc1
5,> 4.5,COc1cc(Nc2ncnc(-n3c(Nc4ccc(F)cc4)nc4ccccc43)n2)cc(OC)c1OC
6,> 4.5,COc1cc(Nc2ncnc(Nc3ccccn3)n2)cc(OC)c1OC
7,> 4.5,COc1cc(Nc2ncnc(-c3cccnc3NCCC(C)(C)C)n2)cc(OC)c1OC
8,2.4 to 3.5,c1coc(-c2cc(Nc3ncnc(Nc4ccc(N5CCOCC5)cc4)n3)[nH]n2)c1
9,> 4.5,COc1cc(Nc2ncnc(-c3c(O)n(C)c4ccccc34)n2)cc(OC)c1OC
10,2.4 to 3.5,COc1cc(Nc2ncnc(-n3c(NCc4nccs4)nc4ccccc43)n2)cc(OC)c1OC
11,2.4 to 3.5,COc1cc(Nc2ncnc(-n3c(NC4CCc5ccccc54)nc4ccccc43)n2)cc(OC)c1OC (stereo unspecified)
12,> 4.5,c1csc(-c2ncnc(Nc3ccncc3)n2)c1
13,> 4.5,NC(=O)Cc1cccc(Nc2ncnc(-n3c(N)nc4ccccc43)n2)c1
14,> 4.5,CCc1ccccc1Nc1ncnc(-n2cccc2)n1
15,0.4 to 2.4,CC(C)(C)c1cc(Nc2ncnc(Nc3cccc(CO)c3)n2)[nH]n1
16,< 0.4,COc1cc(Nc2ncnc(Nc3cccc4ccccc34)n2)cc(OCCN2CCOCC2)c1OC
17,2.4 to 3.5,COc1cc(Nc2ncnc(Nc3ccc(NC(C)=O)c(C(F)(F)F)c3)n2)cc(OC)c1OC
18,0.4 to 2.4,c1coc(-c2cc(Nc3ncnc(Nc4nc[nH]n4)n3)n[nH]2)c1
19,< 0.4,COc1cc(Nc2ncnc(Nc3cccc(CC(=O)O)c3)n2)cc(OC)c1OC
20,> 4.5,O=c1[nH]c2ccccc2n1-c1ncnc(Nc2cccc3ncccc23)n1
21,> 4.5,COc1ccc(CNc2ncnc(Nc3cc(-c4ccco4)n[nH]3)n2)cc1
22,> 4.5,Cc1ccc2c(c1)CCCN2c1ncnc(NCc2cccnc2)n1

row,IC50 [mg/L],Structure (SMILES)
1,> 4.5,COc1cc(Nc2ncnc(-n3cc(OC(C)=O)c4ccccc43)n2)cc(OC)c1OC
2,< 0.4,CN(c1cccc(Cl)c1)c1ncnc(Nc2ccc3c(cnn3C)c2)n1
3,< 0.4,COc1cc(Nc2ncnc(Nc3ccc(Cl)c4ccccc34)n2)cc(OC)c1OC
4,> 4.5,Cc1ccc2c(c1)CCCN2c1ncnc(NCCc2c[nH]c3ccccc23)n1
5,> 4.5,COc1ccc(Nc2ncnc(NCCC#N)n2)cc1OC
6,> 4.5,COCCOc1ccc(Nc2ncnc(-c3ccccc3)n2)cc1
7,0.4 to 2.4,CCN(CC)CCOc1ccc(Nc2ncnc(Nc3cc(OC)c(OC)c(OC)c3)n2)cc1OC
8,2.4 to 3.5,CN(c1ccccc1)c1ncnc(-n2c(N)nc3ccccc32)n1
9,2.4 to 3.5,COc1cc(Nc2ncnc(Nc3cc(-c4cccc(C(F)(F)F)c4)n[nH]3)n2)cc(OC)c1OC
10,> 4.5,COc1cc(Nc2ncnc(Nc3ccncc3)n2)cc(OC)c1OC
11,> 4.5,COC(=O)c1ccc(Nc2ncnc(-c3ccccc3)n2)cc1
12,< 0.4,CN(c1cccc(Cl)c1)c1ncnc(Nc2ncccn2)n1
13,> 4.5,O=c1[nH]c2ccccc2n1-c1ncnc(Nc2ccccc2)n1
14,0.4 to 2.4,CCOc1ccc(Nc2ncnc(Nc3ccc(OCc4ccccc4)cc3)n2)cc1OCC
15,> 4.5,Fc1ccc(CNc2ncccc2-c2ncnc(Nc3ccc(N4CCOCC4)cc3)n2)cc1
16,< 0.4,COc1cc(Nc2ncnc(N(C)c3ccc(Cl)cc3)n2)cc(OC)c1OC
17,2.4 to 3.5,COc1cc(Nc2ncnc(Nc3n[nH]c(Nc4ccc(Cl)cc4)n3)n2)cc(OC)c1OC
18,> 4.5,COCCNc1ncnc(Nc2cc(-c3ccc(C(=O)OC)cc3)n[nH]2)n1
19,2.4 to 3.5,CN(C)c1ccc(Nc2ncnc(-n3c(N)nc4ccccc43)n2)cc1
20,< 0.4,COCCOc1ccc(Nc2ncnc(Nc3ccc4[nH]ccc4c3)n2)cc1OCCOC
21,> 4.5,c1ccc(Cn2ncc3cc(Nc4ncnc(NCC5CCCCC5)n4)ccc32)cc1
22,> 4.5,Clc1ccc(-c2csc(Nc3ncnc(-n4cccc4)n3)n2)cc1

row,IC50 [mg/L],Structure (SMILES)
1,0.4 to 2.4,CCC(Nc1nc2ccccc2n1-c1ncnc(Nc2cc(OC)c(OC)c(OC)c2)n1)c1ccccc1 (stereo unspecified)
2,< 0.4,COc1ccc(Nc2ncnc(Nc3ccc4[nH]ccc4c3)n2)cc1OC
3,> 4.5,COc1cc(Nc2ncnc(-n3c(NCc4ccccn4)nc4ccccc43)n2)cc(OCCN2CCOCC2)c1OC
4,2.4 to 3.5,COC(=O)Cc1cccc(Nc2ncnc(-n3c(N)nc4ccccc43)n2)c1
5,> 4.5,COc1ccc(Nc2ncnc(-n3c(=O)[nH]c4ccccc43)n2)cn1
6,> 4.5,COc1cc(Nc2ncnc(-n3c(NCc4ccc(C)cc4)nc4ccccc43)n2)cc(OC)c1OC
7,> 4.5,COc1cc(Nc2ncnc(Nc3ccc(NCc4ccccc4)cc3)n2)cc(OC)c1OC
8,0.4 to 2.4,COc1cccc(Nc2ncnc(Nc3ccc(OCc4ccccc4)cc3)n2)c1
9,> 4.5,COc1ccc2[nH]cc(CCNc3ncnc(Nc4ccc(OC)c(OC)c4)n3)c2c1
10,2.4 to 3.5,NC(=O)c1ccc(Nc2ncnc(Nc3cc(-c4ccco4)n[nH]3)n2)cc1
11,< 0.4,COc1cc(Nc2nc(F)nc(Nc3cccc(OC(F)(F)F)c3)n2)cc(OC)c1OC
12,> 4.5,NC(=O)c1cccc(Nc2ncnc(-c3cccs3)n2)c1
13,> 4.5,COc1cc(Nc2ncnc(-n3c(NCc4ccc(F)cc4)nc4ccccc43)n2)cc(OC)c1OC
14,> 4.5,Nc1nc2ccccc2n1-c1ncnc(N2C(=O)c3ccccc3C2=O)n1
15,> 4.5,COc1ccc(CNc2nc3cc(OC)ccc3n2-c2ncnc(Nc3cc(OC)c(OC)c(OC)c3)n2)cc1.COc1ccc(CNc2nc3ccc(OC)cc3n2-c2ncnc(Nc3cc(OC)c(OC)c(OC)c3)n2)cc1
16,0.4 to 2.4,c1ccc(Cn2ncc3cc(Nc4ncnc(Nc5ncccn5)n4)ccc32)cc1
17,> 4.5,COc1cc(Nc2ncnc(N3CCCCC3)n2)cc(OC)c1OC
18,< 0.4,COc1ccc(Nc2ncnc(N(C)c3ccccc3)n2)cc1OC
